Experiments:
anaesthetised rats = experiment: Effects on rhythmic bladder-voiding contractions induced by bladder filling in anaesthetised rats; format: in vivo, rat; conditions: intravenous administration, urethane-anaesthetised rats
Method: Female Sprague-Dawley rats weighing 225-275 g (Crl: CDo Br, Charles River Italia) were used. The animals were housed with free access to food and water and maintained on a forced 12-hour alternating light-dark cycle at 22-24° C. for at least one week, except during the experiment. The activity on rhythmic bladder voiding contractions was evaluated according to the method of Dray (Dray J., Pharmacol. Methods, 13:157, 1985), with some modifications as in Guarneri (Guarneri, Pharmacol. Res. 27:173, 1993). Briefly, the rats were anaesthetised by subcutaneous injection of 1.25 g/kg (5 ml/kg) urethane, after which the urinary bladder was catheterised via the urethra using PE 50 polyethylene tubing filled with physiological saline. The catheter was tied in place with a ligature around the external urethral orifice and was connected to conventional pressure transducers (Statham P23 ID/P23 XL). […] The bladder was then filled via the recording catheter by incremental volumes of warm (37° C.) saline until reflex bladder-voiding contractions occurred (usually 0.8-1.5 ml). For intravenous injection of bioactive compounds, PE 50 polyethylene tubing filled with physiological saline was inserted into the jugular vein.
From the cystometrogram, the number of contractions recorded 15 minutes before (basal values) and after treatment, as well as the mean amplitude of these contractions (mean height of the peaks in mmHg), was evaluated.
Since most compounds produced an effect that was relatively rapid in onset and led to a complete cessation of bladder contractions, bioactivity was conveniently estimated by measuring the duration of bladder quiescence (i.e. the length of the time during which no contractions occurred). The number of tested animals showing a reduction in the number of contractions higher than 30% of that observed in the basal period was recorded too.
The extrapolated doses which induced a reduction in the number of contractions greater than 30% in 50% of the treated rats (ED50) were evaluated by the method of Bliss (Bliss C. I., Quart J. Pharm. Pharmacol. 11, 192-216, 1938).

5-HT1A receptors = target: T1, 5-HT1A receptors (Rattus norvegicus, UniProt P19327); experiment: Inhibition of stereotypy (rhythmic forepaw treading) induced by 8-OH-DPAT in rats (post-synaptic antagonism); format: in vivo; conditions: 1 mg/kg p.o.; for inhibition at 1 mg/kg: rat
T1 construct: from tissue; host or cells: whole animal: male Sprague-Dawley rats (post-synaptic 5-HT1A receptors)
T1 sequence (P19327 1-422): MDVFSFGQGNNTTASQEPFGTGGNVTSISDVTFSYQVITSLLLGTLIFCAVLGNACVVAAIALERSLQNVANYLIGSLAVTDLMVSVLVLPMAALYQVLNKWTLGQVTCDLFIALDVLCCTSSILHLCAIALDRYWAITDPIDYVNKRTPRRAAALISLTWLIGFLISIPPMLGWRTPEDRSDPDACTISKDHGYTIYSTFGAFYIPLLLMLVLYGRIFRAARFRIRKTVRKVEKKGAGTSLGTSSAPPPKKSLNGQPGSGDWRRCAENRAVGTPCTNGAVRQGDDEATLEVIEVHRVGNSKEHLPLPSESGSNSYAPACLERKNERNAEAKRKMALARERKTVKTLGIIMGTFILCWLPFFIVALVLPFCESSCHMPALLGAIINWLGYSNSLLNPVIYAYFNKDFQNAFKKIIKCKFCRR
Method: The inhibitory effect of 5-HT1A-receptor antagonists on stereotyped forepaw treading induced in rats by subcutaneous injection of 8-OH-DPAT was evaluated by the method of Tricklebank (Tricklebanket al., Eur. J. Pharmacol., 117: 15, 1985) with minor modifications as described below.
Male Sprague-Dawley rats [Crl: CD° (SD) BR] weighing 150-175 g from Charles River Italia were used. The animals were housed with free access to food and water and maintained on a forced 12-hour-light/12-hour-dark cycle at 22-24° C. of temperature. On the day of the experiment, the rats were placed singly in clear plastic containers, 10-15 minutes before administration of the vehicle or compounds to be tested. For evaluation of antagonistic activity after oral administration, the compounds were administered 0.5, 1 and 4 hours before induction of stereotypy by 8-OH-DPAT (1 mg/kg subcutaneously). Observation sessions lasted 30 seconds and began 3 minutes after 8-OH-DPAT treatment and were repeated every 3 minutes over a period of 15 minutes.
The appearance of the symptom induced by postsynaptic stimulation of 5-HT1A receptors was noted, and the intensity was scored using an intensity scale in which: 0=absent, 1=equivocal, 2=present and 3=intense. Behavioural scores for treated rats were accumulated throughout the observation time (5 observation periods) and expressed as mean values of 4 rats/dose. Change in mean values of treated animals in comparison with control (vehicle) group, expressed as per-cent inhibition, was used in order to quantify the antagonistic activity.

inhibition at 1 mg/kg (5-HT1A receptors; 0.5 h before 8-OH-DPAT (1 mg/kg s.c.)): 91%
inhibition at 1 mg/kg (5-HT1A receptors; 1 h before 8-OH-DPAT (1 mg/kg s.c.)): 91%
inhibition at 1 mg/kg (5-HT1A receptors; 4 h before 8-OH-DPAT (1 mg/kg s.c.)): 96%
Structure (SMILES): O=C(C1CCCCC1)N1c2ccccc2CCC1CN1CCN(c2cccc3[nH]ccc23)CC1 (racemic) [Example 1, (±)1-(1-cyclohexanecarbonyl-1,2,3,4-tetrahydroquinoline-2-ylmethyl)-4-(4-indolyl)piperazine]
ED50 (anaesthetised rats; Rattus norvegicus, read-out: ED50 frequency (extrapolated dose inducing a reduction of the number of contractions >30% in 50% of treated rats)): 0.064 mg/kg
ED10 min (extrapolated dose inducing 10 minutes of disappearance of the contractions) (anaesthetised rats): 0.107 mg/kg
post-synaptic 5-HT1A-receptor antagonist activity (in words) (5-HT1A receptors; rats): significant and long-lasting post-synaptic 5-HT1A-receptor antagonist activity

From patent US20030162777A1, “Novel N-acylated heterocycles” (Recordati S.A., priority 2001, published 2003)
